pIC50: −log10 of the molar value.

Here are results for 2 compounds from BindingDB's records for doi:10.1016/j.chembiol.2007.10.010 (University of Munich, 2007).

This experiment has as its target T1, 3-phosphoinositide-dependent protein kinase 1 (Homo sapiens, UniProt O15530).
T1 sequence (O15530 whole entry): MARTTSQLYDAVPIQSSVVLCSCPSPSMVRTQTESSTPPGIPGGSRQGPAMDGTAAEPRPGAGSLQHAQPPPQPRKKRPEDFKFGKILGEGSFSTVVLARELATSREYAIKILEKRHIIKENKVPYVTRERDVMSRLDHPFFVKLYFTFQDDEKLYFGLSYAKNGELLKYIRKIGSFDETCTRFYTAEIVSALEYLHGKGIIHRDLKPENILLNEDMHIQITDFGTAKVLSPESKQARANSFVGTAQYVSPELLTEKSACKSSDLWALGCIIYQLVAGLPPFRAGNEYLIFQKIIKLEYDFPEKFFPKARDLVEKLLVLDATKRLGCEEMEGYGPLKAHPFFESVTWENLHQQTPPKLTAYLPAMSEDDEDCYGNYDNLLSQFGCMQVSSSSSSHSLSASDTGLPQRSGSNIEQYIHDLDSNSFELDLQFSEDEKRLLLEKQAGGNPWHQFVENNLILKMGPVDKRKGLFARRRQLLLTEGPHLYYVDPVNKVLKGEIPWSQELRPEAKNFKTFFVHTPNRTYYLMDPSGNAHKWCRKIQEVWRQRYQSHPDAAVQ
In words: In Vitro Kinase Assay. Particulars: pH 7.5; 30 °C. An excerpt:
PDK1 protein kinase was expressed in Sf9 insect cells as human recombinant GST-fusion protein by means of the baculovirus expression systems. Protein kinase assay (33PanQinase assay) was used for measuring the kinase activity of PDK1.

A word on the pIC50: it is the negative decadic logarithm of the IC50, by convention in mol/L. Turning to `O=Nc1c(C2C(=O)Nc3ccccc32)[nH]c2ccccc12` (configuration not stated) [Indirubin-3 -monoxime], the negative-log IC50 (pIC50) was less than 4.00. Consider `O=Nc1c(C2C(=O)Nc3ccc(Br)cc32)[nH]c2ccccc12` (configuration not stated) [5BIO], for which the pIC50 was less than 4.00.
